According to ChEMBL document CHEMBL1201862, “PubChem BioAssay data set” (2004):
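1) Cells in 96-well plates. 2) Compound, 48 h, 5 concentrations. 3) Linear interpolation between surrounding doses. 4) Unreached endpoint = highest concentration. Here, GI50 denotes the concentration required for 50% inhibition of growth.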 Activity calls are given as the source filed them. No stated cut-off is given here; in the data, active = GI50 up to about 1.1 µM and inactive = higher.

How the values were obtained:
Test in all cases: DTP human tumour cell line panel, 48 h
UACC-62 = tested on: UACC-62
SNB-75 = tested on: SNB-75
NCI-H226 = tested on: NCI-H226
Malme-3M = tested on: Malme-3M
786-0 = tested on: 786-0
COLO 205 = tested on: COLO 205
SF-539 = tested on: SF-539
UACC-257 = tested on: UACC-257
HOP-62 = tested on: HOP-62
SR = tested on: SR
T47D = tested on: T47D
MDA-MB-435 = tested on: MDA-MB-435
SNB-19 = tested on: SNB-19
A549 = tested on: A549
RXF 393 = tested on: RXF 393
SN12C = tested on: SN12C
HCT-15 = tested on: HCT-15
MCF7 = tested on: MCF7
SK-OV-3 = tested on: SK-OV-3
CAKI-1 = tested on: CAKI-1
RPMI-8226 = tested on: RPMI-8226
OVCAR-4 = tested on: OVCAR-4
SF-268 = tested on: SF-268
SF-295 = tested on: SF-295
M14 = tested on: M14
MDA-MB-231 = tested on: MDA-MB-231
IGROV-1 = tested on: IGROV-1
OVCAR-3 = tested on: OVCAR-3
K562 = tested on: K562
TK-10 = tested on: TK-10
U-251 = tested on: U-251
HCC 2998 = tested on: HCC 2998
EKVX = tested on: EKVX
UO-31 = tested on: UO-31
SW-620 = tested on: SW-620
Hs-578T = tested on: Hs-578T
HCT-116 = tested on: HCT-116
KM12 = tested on: KM12
ACHN = tested on: ACHN
CCRF-CEM = tested on: CCRF-CEM
HL-60 = tested on: HL-60
MDA-N = tested on: MDA-N
PC-3 = tested on: PC-3
HT-29 = tested on: HT-29
NCI/ADR-RES = tested on: NCI/ADR-RES
HOP-92 = tested on: HOP-92
SK-MEL-2 = tested on: SK-MEL-2
LOX IMVI = tested on: LOX IMVI
DU-145 = tested on: DU-145
MOLT-4 = tested on: MOLT-4
OVCAR-8 = tested on: OVCAR-8
OVCAR-5 = tested on: OVCAR-5
SK-MEL-28 = tested on: SK-MEL-28
NCI-H460 = tested on: NCI-H460
SK-MEL-5 = tested on: SK-MEL-5
NCI-H522 = tested on: NCI-H522
NCI-H23 = tested on: NCI-H23

SMILES: CSCCC(NCc1c(O)ccc2c(-c3ccccc3)cc(=O)oc12)C(=O)O (configuration not stated)
- GI50 (UACC-62): > 100 µM (inactive)
- GI50 (SNB-75): > 100 µM (inactive)
- GI50 (NCI-H226): > 100 µM (inactive)
- GI50 (Malme-3M): > 100 µM (inactive)
- GI50 (786-0): > 100 µM (inactive)
- GI50 (COLO 205): > 100 µM (inactive)
- GI50 (SF-539): > 100 µM (inactive)
- GI50 (UACC-257): > 100 µM (inactive)
- GI50 (HOP-62): > 100 µM (inactive)
- GI50 (SR): > 100 µM (inactive)
- GI50 (T47D): > 100 µM (inactive)
- GI50 (MDA-MB-435): > 100 µM (inactive)
- GI50 (SNB-19): > 100 µM (inactive)
- GI50 (A549): > 100 µM (inactive)
- GI50 (RXF 393): > 100 µM (inactive)
- GI50 (SN12C): > 100 µM (inactive)
- GI50 (HCT-15): > 100 µM
- GI50 (MCF7): > 100 µM (inactive)
- GI50 (SK-OV-3): > 100 µM (inactive)
- GI50 (CAKI-1): > 100 µM (inactive)
- GI50 (RPMI-8226): > 100 µM (inactive)
- GI50 (OVCAR-4): > 100 µM (inactive)
- GI50 (SF-268): > 100 µM (inactive)
- GI50 (SF-295): > 100 µM (inactive)
- GI50 (M14): > 100 µM (inactive)
- GI50 (MDA-MB-231): > 100 µM (inactive)
- GI50 (IGROV-1): > 100 µM (inactive)
- GI50 (OVCAR-3): > 100 µM (inactive)
- GI50 (K562): > 100 µM (inactive)
- GI50 (TK-10): > 100 µM (inactive)
- GI50 (U-251): > 100 µM (inactive)
- GI50 (HCC 2998): > 100 µM (inactive)
- GI50 (EKVX): > 100 µM (inactive)
- GI50 (UO-31): > 100 µM (inactive)
- GI50 (SW-620): > 100 µM (inactive)
- GI50 (Hs-578T): > 100 µM (inactive)
- GI50 (HCT-116): > 100 µM (inactive)
- GI50 (KM12): > 100 µM (inactive)
- GI50 (ACHN): > 100 µM (inactive)
- GI50 (CCRF-CEM): > 100 µM (inactive)
- GI50 (HL-60): > 100 µM (inactive)
- GI50 (MDA-N): > 100 µM (inactive)
- GI50 (PC-3): > 100 µM (inactive)
- GI50 (HT-29): > 100 µM (inactive)
- GI50 (NCI/ADR-RES): > 100 µM (inactive)
- GI50 (HOP-92): > 100 µM (inactive)
- GI50 (SK-MEL-2): > 100 µM (inactive)
- GI50 (LOX IMVI): > 100 µM (inactive)
- GI50 (DU-145): > 100 µM (inactive)
- GI50 (MOLT-4): > 100 µM (inactive)
- GI50 (OVCAR-8): > 100 µM (inactive)
- GI50 (OVCAR-5): > 100 µM (inactive)
- GI50 (SK-MEL-28): > 100 µM (inactive)
- GI50 (NCI-H460): > 100 µM (inactive)
- GI50 (SK-MEL-5): > 100 µM (inactive)
- GI50 (NCI-H522): > 100 µM (inactive)
- GI50 (NCI-H23): > 100 µM (inactive)
